In test [1] the target is Polycomb protein EED (Homo sapiens, UniProt O75530). The test can be described thus: Inhibition of EED (unknown origin) by ELISA based assay.
The nature of test [2]: Inhibition of p38 (unknown origin).

Here are results for 2 molecules from ChEMBL document CHEMBL5550121, “Expanding the ligand spaces for E3 ligases for the design of protein degraders” (Bioorg Med Chem, 2024).

pIC50: −log10 of the molar value.

Sequence of Polycomb protein EED (O75530 whole entry): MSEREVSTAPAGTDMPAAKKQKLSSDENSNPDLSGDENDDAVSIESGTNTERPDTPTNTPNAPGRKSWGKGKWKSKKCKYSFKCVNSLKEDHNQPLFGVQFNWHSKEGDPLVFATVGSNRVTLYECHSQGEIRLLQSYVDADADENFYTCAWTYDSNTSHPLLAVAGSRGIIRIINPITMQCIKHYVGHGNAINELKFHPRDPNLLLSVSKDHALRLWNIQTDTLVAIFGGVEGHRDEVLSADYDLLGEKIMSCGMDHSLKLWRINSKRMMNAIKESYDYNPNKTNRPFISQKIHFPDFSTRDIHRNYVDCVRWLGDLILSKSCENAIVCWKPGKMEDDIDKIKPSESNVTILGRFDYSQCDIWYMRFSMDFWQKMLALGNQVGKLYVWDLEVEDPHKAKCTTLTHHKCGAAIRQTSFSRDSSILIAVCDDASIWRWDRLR

For the molecule `Cc1ncccc1-c1cnc(NCc2c(F)ccc3c2CCO3)n2cnnc12`, the pIC50 in test [1] is 7.59.

In test [2], `COc1cc2c(Oc3ccc(NC(=O)C4(C(=O)Nc5ccc(F)cc5)CC4)cc3F)ccnc2cc1OCCCN1CCOCC1` [FORETINIB] had a pIC50 of 4.96.

For orientation: pIC50 means the IC50 on a negative log10 scale, so that one unit is a factor of ten. High values mean a low IC50, low ones a high IC50.
